Our source for the IC50 values is patent publication US9926282B2, “Phthalazinones and isoquinolinones as rock inhibitors” (BRISTOL-MYERS SQUIBB COMPANY, priority 2013, dated 2018).

The structures appear in SMILES notation. pIC50: −log10 of the molar value.

In assay [1] the target is ROCK2 (Homo sapiens (Human), UniProt O75116). In words: ROCK assay (LABCHIP peptide phosphorylation), ROCK2. The assay is classed as biochemical. The settings on record: 5 μM ATP, 1.5 μM peptide substrate.
Assay [2] concerns the target ROCK1 (Homo sapiens (Human), UniProt Q13464). In words: ROCK assay (LABCHIP peptide phosphorylation), ROCK1. The assay is classed as biochemical. The settings on record: 5 μM ATP, 1.5 μM peptide substrate; read-out: ROCK1 IC50.

Sequence of ROCK2 (O75116 whole entry, species assumed): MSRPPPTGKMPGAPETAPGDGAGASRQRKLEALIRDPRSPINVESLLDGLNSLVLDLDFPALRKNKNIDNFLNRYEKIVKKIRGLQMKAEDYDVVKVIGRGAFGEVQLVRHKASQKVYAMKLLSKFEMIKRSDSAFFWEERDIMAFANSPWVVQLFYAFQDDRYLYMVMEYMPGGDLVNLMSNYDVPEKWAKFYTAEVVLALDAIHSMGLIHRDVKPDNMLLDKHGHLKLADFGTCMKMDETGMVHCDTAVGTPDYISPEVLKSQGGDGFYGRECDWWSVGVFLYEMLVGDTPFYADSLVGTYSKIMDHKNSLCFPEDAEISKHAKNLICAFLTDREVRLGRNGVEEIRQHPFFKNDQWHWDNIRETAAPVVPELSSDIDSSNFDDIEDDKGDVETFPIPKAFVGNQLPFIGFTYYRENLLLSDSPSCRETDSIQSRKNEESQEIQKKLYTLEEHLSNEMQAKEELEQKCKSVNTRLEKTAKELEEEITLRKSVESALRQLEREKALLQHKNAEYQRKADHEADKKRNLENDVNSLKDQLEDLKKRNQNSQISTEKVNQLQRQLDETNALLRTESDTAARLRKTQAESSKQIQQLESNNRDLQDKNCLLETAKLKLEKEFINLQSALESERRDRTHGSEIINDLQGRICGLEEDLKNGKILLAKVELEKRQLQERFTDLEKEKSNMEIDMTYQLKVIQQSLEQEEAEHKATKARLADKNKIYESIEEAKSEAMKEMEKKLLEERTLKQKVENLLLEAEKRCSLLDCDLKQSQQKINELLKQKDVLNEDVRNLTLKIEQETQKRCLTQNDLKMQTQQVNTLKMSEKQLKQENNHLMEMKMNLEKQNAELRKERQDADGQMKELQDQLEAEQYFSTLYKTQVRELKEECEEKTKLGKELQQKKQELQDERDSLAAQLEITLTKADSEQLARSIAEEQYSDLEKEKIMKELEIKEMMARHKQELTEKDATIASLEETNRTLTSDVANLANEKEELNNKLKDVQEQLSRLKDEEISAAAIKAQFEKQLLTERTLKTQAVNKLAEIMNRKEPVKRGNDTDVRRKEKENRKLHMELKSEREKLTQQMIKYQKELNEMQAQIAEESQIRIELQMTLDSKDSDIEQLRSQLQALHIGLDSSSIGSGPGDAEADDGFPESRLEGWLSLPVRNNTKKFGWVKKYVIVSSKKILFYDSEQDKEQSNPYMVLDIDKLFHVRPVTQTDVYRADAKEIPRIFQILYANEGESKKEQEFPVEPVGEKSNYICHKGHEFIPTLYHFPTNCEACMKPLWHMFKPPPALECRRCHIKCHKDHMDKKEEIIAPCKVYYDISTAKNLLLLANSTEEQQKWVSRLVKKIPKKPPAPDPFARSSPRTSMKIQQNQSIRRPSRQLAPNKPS
Sequence of ROCK1 (Q13464 whole entry, species assumed): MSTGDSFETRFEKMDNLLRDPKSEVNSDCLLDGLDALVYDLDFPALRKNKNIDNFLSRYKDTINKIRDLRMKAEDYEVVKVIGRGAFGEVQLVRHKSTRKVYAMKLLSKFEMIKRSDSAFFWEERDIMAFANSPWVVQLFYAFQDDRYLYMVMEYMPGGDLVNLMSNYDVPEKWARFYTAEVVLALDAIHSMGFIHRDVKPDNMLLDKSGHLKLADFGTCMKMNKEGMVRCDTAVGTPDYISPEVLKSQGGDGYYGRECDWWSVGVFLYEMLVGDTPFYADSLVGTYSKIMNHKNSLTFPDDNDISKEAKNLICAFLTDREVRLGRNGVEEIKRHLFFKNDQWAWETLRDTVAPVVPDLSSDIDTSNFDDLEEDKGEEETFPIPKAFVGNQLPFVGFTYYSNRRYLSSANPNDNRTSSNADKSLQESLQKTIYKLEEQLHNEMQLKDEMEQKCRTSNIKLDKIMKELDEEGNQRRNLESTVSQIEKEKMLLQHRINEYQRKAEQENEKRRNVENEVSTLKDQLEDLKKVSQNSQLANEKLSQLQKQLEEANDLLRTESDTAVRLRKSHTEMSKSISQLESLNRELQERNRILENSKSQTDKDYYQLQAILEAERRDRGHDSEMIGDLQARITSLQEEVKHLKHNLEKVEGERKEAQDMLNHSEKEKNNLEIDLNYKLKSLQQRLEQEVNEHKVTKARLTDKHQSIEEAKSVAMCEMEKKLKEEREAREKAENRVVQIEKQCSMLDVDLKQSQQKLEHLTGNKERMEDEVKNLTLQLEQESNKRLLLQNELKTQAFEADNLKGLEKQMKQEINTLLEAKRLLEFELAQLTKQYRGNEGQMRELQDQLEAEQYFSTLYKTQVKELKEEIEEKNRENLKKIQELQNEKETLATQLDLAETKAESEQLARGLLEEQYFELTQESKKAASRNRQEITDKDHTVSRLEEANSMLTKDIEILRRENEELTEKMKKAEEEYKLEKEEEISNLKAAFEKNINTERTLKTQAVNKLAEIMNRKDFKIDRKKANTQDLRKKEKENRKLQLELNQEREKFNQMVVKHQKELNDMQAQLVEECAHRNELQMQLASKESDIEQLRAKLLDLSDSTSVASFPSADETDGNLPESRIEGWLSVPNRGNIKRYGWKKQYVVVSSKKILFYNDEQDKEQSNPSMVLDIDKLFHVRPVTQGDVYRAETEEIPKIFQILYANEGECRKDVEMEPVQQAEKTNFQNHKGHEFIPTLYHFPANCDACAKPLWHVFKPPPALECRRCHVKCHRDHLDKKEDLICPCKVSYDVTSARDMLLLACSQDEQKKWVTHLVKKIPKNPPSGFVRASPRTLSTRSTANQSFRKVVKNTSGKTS

As to `Cc1noc(-c2ccc(C(C)(C)O)cc2)c1C(=O)Nc1ccc(-c2n[nH]c(=O)c3ccccc23)cc1` [Example 223, 5-[4-(2-hydroxypropan-2-yl)phenyl]-3-methyl-N-[4-(4-oxo-3,4-dihydrophthalazin-1-yl)phenyl]-1,2-oxazole-4-carboxamide], the pIC50 in assay [1] and in assay [2] was 7.00 to 10.00 in each case.

Consider `CC(C)N1CC(C(=O)Nc2ccc(-c3n[nH]c(=O)c4ccccc34)cc2)CC1=O` (stereo not shown) [Example 218, 5-oxo-N-[4-(4-oxo-3,4-dihydrophthalazin-1-yl)phenyl]-1-(propan-2-yl)pyrrolidine-3-carboxamide], for which the figures for the pIC50 in assay [1] and in assay [2] were 6.00 to 7.00 and 4.30 to 6.00, respectively.

As to `CC(C)(O)COc1ccc2c(C(=O)Nc3ccc(-c4n[nH]c(=O)c5ccccc45)cc3)cnn2c1` [Example 172, 6-(2-hydroxy-2-methylpropoxy)-N-[4-(4-oxo-3,4-dihydrophthalazin-1-yl)phenyl]pyrazolo[1,5-a]pyridine-3-carboxamide], the pIC50 in assay [1] and in assay [2] was 7.00 to 10.00 each time.

On to `O=C(Nc1ccc(-c2n[nH]c(=O)c3ccccc23)c(CO)c1)c1nn(CCO)c2ccccc12` [Example 359, 1-(2-Hydroxyethyl)-N-(3-(hydroxymethyl)-4-(4-oxo-3,4-dihydrophthalazin-1-yl)phenyl)-1H-indazole-3-carboxamide], for which the negative logarithm of the IC50 (pIC50) (in general, the IC50 on a negative log10 scale, so that one unit is a factor of ten) in assay [1] was 7.00 to 10.00; in assay [2], 4.30 to 6.00.

Turning to `Cc1nc2ccccn2c1C(=O)Nc1ccc(-c2n[nH]c(=O)c3ccccc23)cc1` [Example 95, 2-methyl-N-[4-(4-oxo-3,4-dihydrophthalazin-1-yl)phenyl]imidazo[1,2-a]pyridine-3-carboxamide], the negative-log IC50 (pIC50) in assay [1] and in assay [2] was 7.00 to 10.00 throughout.

On to `O=C(Cc1ccc(-c2n[nH]c(=O)c3ccccc23)cc1)N1CCc2ccc(OCc3ccccn3)cc21` [Example 271, 4-(4-{2-oxo-2-[6-(pyridin-2-ylmethoxy)-2,3-dihydro-1H-indol-1-yl]ethyl}phenyl)-1,2-dihydrophthalazin-1-one], for which the pIC50 in assay [1] and in assay [2] was 7.00 to 10.00 each time.

On to `Cc1cc(C(=O)Nc2ccc(-c3n[nH]c(=O)c4ccccc34)cc2)nn1-c1ccccc1` [Example 213, 5-methyl-N-[4-(4-oxo-3,4-dihydrophthalazin-1-yl)phenyl]-1-phenyl-1H-pyrazole-3-carboxamide], for which the pIC50 in assay [1] and in assay [2] was 7.00 to 10.00 each time.

`CN(C)C(=O)c1ccc2c(c1)N(C(=O)Cc1ccc(-c3n[nH]c(=O)c4ccccc34)cc1)CC2` [Example 291, N,N-dimethyl-1-{2-[4-(4-oxo-3,4-dihydrophthalazin-1-yl)phenyl]acetyl}-2,3-dihydro-1H-indole-6-carboxamide]: the pIC50 in assay [1] is 7.00 to 10.00; in assay [2] it was 6.00 to 7.00.

`CC(C)OC(=O)N1CCC(Cn2nc(C(=O)Nc3ccc(-c4n[nH]c(=O)c5ccccc45)cc3)c3ccccc32)CC1` [Example 349, Propan-2-yl 4-[(3-{[4-(4-oxo-3,4-dihydrophthalazin-1-yl)phenyl]carbamoyl}-1H-indazol-1-yl)methyl]piperidine-1-carboxylate]: the pIC50 in assay [1] and in assay [2] was 7.00 to 10.00 in each case.

Consider `O=C(Nc1ccc(-c2n[nH]c(=O)c3ccccc23)c(Cl)c1)c1nn(CC2CCOC2)c2ccccc12` (stereo not shown) [Example 319, N-[3-chloro-4-(4-oxo-3,4-dihydrophthalazin-1-yl)phenyl]-1-(oxolan-3-ylmethyl)-1H-indazole-3-carboxamide], for which the negative logarithm of the IC50 (pIC50) in assay [1] and in assay [2] was 7.00 to 10.00 in each case.

In the case of `COc1ccccc1-n1cc(C(=O)Nc2ccc(-c3n[nH]c(=O)c4ccccc34)cc2)nn1` [Example 406, 1-(2-Methoxyphenyl)-N-(4-(4-oxo-3,4-dihydrophthalazin-1-yl)phenyl)-1H-1,2,3-triazole-4-carboxamide], the pIC50 in assay [1] and in assay [2] was 7.00 to 10.00 throughout.
